Test results published in ChEMBL document CHEMBL1158532, “A novel kavalactone derivative protects against H2O2-induced PC12 cell death via Nrf2/ARE activation” (Bioorg Med Chem, 2010).
Activity calls are given as the source filed them. The calls are words filed in the database; no cut-off is given here.

What was measured:
[1] = target: T1, Nuclear factor erythroid 2-related factor 2 (Rattus norvegicus) (UniProt O54968); experiment: Activation of Nrf2 in rat PC12 cells at 10 uM after 24 hrs by antioxidant response element-driven luciferase reporter gene assay; format: functional, cell-based; settings: PC-12
T1 sequence (whole entry): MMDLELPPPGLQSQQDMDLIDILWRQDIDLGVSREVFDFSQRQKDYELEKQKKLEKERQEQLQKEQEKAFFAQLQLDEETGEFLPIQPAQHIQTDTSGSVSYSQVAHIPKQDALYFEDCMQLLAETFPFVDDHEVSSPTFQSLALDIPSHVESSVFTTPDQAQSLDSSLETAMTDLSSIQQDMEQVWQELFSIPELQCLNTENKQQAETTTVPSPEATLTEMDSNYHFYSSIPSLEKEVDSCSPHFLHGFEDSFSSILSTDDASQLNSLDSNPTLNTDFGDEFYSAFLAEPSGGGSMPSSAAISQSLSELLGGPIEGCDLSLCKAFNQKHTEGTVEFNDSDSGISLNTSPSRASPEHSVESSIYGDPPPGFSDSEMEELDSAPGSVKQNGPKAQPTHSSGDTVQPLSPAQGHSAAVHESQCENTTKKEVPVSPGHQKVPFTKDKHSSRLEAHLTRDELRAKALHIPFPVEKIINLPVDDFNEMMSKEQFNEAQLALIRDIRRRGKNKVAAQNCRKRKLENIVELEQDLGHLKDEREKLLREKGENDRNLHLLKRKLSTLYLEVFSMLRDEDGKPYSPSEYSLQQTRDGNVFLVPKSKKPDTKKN

PC-12 [2] = experiment: Induction of HO-1 protein expression in rat PC12 cells at 10 uM after 24 hrs by Western blot analysis; format: functional, cell-based
PC-12 [3] = experiment: Induction of gamma-GCSc catalytic subunit protein expression in rat PC12 cells at 10 uM after 24 hrs by Western blot analysis relative to control; format: functional
[4] = target: T1, Nuclear factor erythroid 2-related factor 2 (Rattus norvegicus); experiment: Activation of Nrf2 in rat PC12 cells at 10 uM after 24 hrs by antioxidant response element-driven luciferase reporter gene assay relative to kawain; format: functional, cell-based; settings: PC-12
PC-12 [5] = experiment: Increase in NQO1 protein expression in rat PC12 cells at 10 uM after 3 hrs by Western blot analysis; format: functional, cell-based
PC-12 [6] = experiment: Induction of HO-1 protein expression in rat PC12 cells at 10 uM after 24 hrs by Western blot analysis relative to kawain; format: functional
PC-12 [7] = experiment: Induction of HO-1 protein expression in rat PC12 cells at 10 uM after 24 hrs by Western blot analysis relative to yangonin; format: functional
PC-12 [8] = experiment: Induction of HO-1 protein expression in rat PC12 cells at 10 uM after 3 hrs by Western blot analysis in presence of 2.5 […] N-acetyl-cysteine; format: functional, cell-based
[9] = target: T1, Nuclear factor erythroid 2-related factor 2 (Rattus norvegicus); experiment: Activation of Nrf2 in rat PC12 cells after 24 hrs by antioxidant response element-driven luciferase reporter gene assay relative to yangonin; format: functional, cell-based; settings: PC-12
PC-12 [10] = experiment: Cytotoxicity against rat PC12 cells at 100 uM after 24 hrs by WST8 assay; format: cell-based; settings: pc-12, 24 h
PC-12 [11] = experiment: Increase in HO-1 protein expression in rat PC12 cells at 10 uM treated 24 hrs before H202 challenge measured after 24 hrs by Western blot analysis; format: functional, cell-based
PC-12 [12] = experiment: Induction of gamma-GCSc catalytic subunit protein expression in rat PC12 cells at 10 uM after 12 hrs by Western blot analysis; format: functional, cell-based
PC-12 [13] = experiment: Induction of Nrf2 release in rat PC12 cells assessed as increase in intracellular ROS level at 10 uM after 1 hr by CM-H2-DCFDA staining-based fluorescence assay; format: functional, cell-based
PC-12 [14] = experiment: Induction of HO-1 protein expression in rat PC12 cells at 10 uM after 24 hrs by Western blot analysis relative to methysticin; format: functional
[15] = target: T1, Nuclear factor erythroid 2-related factor 2 (Rattus norvegicus); experiment: Activation of Nrf2 in rat PC12 cells assessed as induction of translocation into nucleus at 10 uM after 30 mins by Western blot analysis; format: functional, cell-based; settings: PC-12
PC-12 [16] = experiment: Cytotoxicity against rat PC12 cells assessed as effect on cellular morphology at 50 to 100 uM after 24 hrs by WST8 assay; format: cell-based; settings: pc-12, 24 h
PC-12 [17] = experiment: Increase in HO-1 protein expression in rat PC12 cells at 10 uM after 3 hrs by Western blot analysis; format: functional, cell-based
PC-12 [18] = experiment: Increase in p38 phosphorylation in rat PC12 cells at 10 uM after 5 mins by Western blot analysis; format: cell-based
[19] = target: T1, Nuclear factor erythroid 2-related factor 2 (Rattus norvegicus); experiment: Activation of Nrf2 in rat PC12 cells assessed as induction of translocation into nucleus at 10 uM after 24 hrs by Western blot analysis; format: functional, cell-based; settings: PC-12
PC-12 [20] = experiment: Induction of Nrf2 release in rat PC12 cells assessed as increase in intracellular ROS level at 10 uM after 3 hrs by CM-H2-DCFDA staining-based fluorescence assay; format: functional, cell-based
PC-12 [21] = experiment: Induction of HO-1 protein expression in rat PC12 cells at 10 uM after 3 hrs by Western blot analysis in presence of 5 uM p38 inhibitor SB-203580; format: functional, cell-based
[22] = target: RAC-alpha serine/threonine-protein kinase (Rattus norvegicus) (UniProt P47196); experiment: Increase in Akt phosphorylation in rat PC12 cells at 10 uM after 24 hrs by Western blot analysis; format: cell-based; settings: PC-12
Sequence of RAC-alpha serine/threonine-protein kinase (Rattus norvegicus) (P47196 whole entry): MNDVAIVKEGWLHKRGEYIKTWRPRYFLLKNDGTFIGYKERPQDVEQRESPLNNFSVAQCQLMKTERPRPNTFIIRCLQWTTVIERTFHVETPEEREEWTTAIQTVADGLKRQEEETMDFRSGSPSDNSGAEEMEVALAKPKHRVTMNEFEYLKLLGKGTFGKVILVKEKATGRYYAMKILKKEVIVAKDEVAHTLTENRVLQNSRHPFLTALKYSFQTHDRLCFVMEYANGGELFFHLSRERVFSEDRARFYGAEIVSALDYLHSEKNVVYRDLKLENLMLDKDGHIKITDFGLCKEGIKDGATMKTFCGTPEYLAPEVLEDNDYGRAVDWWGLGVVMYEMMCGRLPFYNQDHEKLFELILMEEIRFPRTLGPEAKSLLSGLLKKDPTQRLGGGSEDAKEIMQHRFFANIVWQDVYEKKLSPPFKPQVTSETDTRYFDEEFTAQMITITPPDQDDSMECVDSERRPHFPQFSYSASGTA

PC-12 [23] = experiment: Induction of HO-1 protein expression in rat PC12 cells at 10 uM after 24 hrs by Western blot analysis relative to control; format: functional
[24] = target: T1, Nuclear factor erythroid 2-related factor 2 (Rattus norvegicus); experiment: Activation of Nrf2 in rat PC12 cells at 10 uM after 24 hrs by antioxidant response element-driven luciferase reporter gene assay relative to yangonin; format: functional, cell-based; settings: PC-12
PC-12 [25] = experiment: Neuroprotective activity against H202-induced rat PC12 cell death at 10 uM treated 24 hrs before H202 challenge measured after 24 hrs by WST8 assay; format: functional, cell-based
PC-12 [26] = experiment: Induction of NQO1 protein expression in rat PC12 cells at 10 uM after 24 hrs by Western blot analysis relative to control; format: functional
[27] = target: T2, Mitogen-activated protein kinase 1 and 3 (ERK2 and ERK1) (Rattus norvegicus) (UniProt P63086+P21708); experiment: Increase in Erk1/2 phosphorylation in rat PC12 cells at 10 uM after 6 hrs by Western blot analysis; format: cell-based; settings: PC-12
T2 sequence (P21708 whole entry, looked up): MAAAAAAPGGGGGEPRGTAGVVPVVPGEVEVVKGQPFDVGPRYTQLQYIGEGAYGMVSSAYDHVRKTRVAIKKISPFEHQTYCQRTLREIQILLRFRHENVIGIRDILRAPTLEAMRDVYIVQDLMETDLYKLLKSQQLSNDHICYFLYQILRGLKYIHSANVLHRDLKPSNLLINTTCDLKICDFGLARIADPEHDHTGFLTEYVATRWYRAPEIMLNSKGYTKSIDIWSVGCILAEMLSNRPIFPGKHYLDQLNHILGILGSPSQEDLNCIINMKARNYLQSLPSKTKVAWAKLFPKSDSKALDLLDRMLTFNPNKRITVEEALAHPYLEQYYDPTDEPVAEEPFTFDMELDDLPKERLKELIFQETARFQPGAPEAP
T2 sequence (P63086 whole entry, looked up): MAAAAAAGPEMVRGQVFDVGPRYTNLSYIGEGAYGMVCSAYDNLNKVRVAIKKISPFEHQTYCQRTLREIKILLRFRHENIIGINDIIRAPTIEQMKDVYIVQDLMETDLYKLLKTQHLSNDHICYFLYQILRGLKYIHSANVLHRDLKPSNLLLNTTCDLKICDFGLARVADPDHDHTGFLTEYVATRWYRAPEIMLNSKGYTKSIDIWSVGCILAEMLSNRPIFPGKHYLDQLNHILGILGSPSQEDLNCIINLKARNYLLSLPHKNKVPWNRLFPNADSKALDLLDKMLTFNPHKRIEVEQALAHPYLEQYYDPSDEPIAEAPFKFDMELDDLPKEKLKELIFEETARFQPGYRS

[28] = target: T2, Mitogen-activated protein kinase 1 and 3 (ERK2 and ERK1) (Rattus norvegicus); experiment: Increase in Erk1/2 phosphorylation in rat PC12 cells at 10 uM after 5 mins by Western blot analysis; format: cell-based; settings: PC-12
PC-12 [29] = experiment: Induction of HO-1 protein expression in rat PC12 cells at 10 uM after 3 hrs by Western blot analysis in presence of 20 uM MEK1/2 inhibitor PD-98059; format: functional, cell-based
[30] = target: T1, Nuclear factor erythroid 2-related factor 2 (Rattus norvegicus); experiment: Activation of Nrf2 in rat PC12 cells at 10 uM after 24 hrs by antioxidant response element-driven luciferase reporter gene assay relative to methysticin; format: functional, cell-based; settings: PC-12

COc1ccc(/C=C/c2cc(OC)cc(=O)o2)cc1
Activity [1]: Active | Activity (PC-12 [2]): Active

COC1=CC(=O)O[C@@H](/C=C/c2ccc3c(c2)OCO3)C1
Activity [1]: Active | Activity (PC-12 [2]): Active

COCc1c(OC)cc(=O)oc1/C=C/c1c(Cl)cccc1Cl
fold change (FC) (PC-12 [3]): 2 | fold change (FC) [4]: 2 | Activity (PC-12 [5]): Active | fold change (FC) (PC-12 [6]): 3 | fold change (FC) (PC-12 [7]): 3 | Activity (PC-12 [8]): inactive | Activity [9]: Dose-dependent effect | Activity (PC-12 [10]): Non-toxic | Activity (PC-12 [11]): Active | Activity (PC-12 [12]): Active | Activity (PC-12 [13]): Active | fold change (FC) (PC-12 [14]): 3 | Activity [15]: Active | Activity (PC-12 [16]): Toxic | Activity (PC-12 [17]): Active | Activity (PC-12 [18]): Active | Activity [19]: Active | Activity (PC-12 [20]): inactive | Activity (PC-12 [21]): inactive | Activity [22]: inactive | fold change (FC) (PC-12 [23]): 2 | fold change (FC) [24]: 2 | Activity (PC-12 [25]): Active | fold change (FC) (PC-12 [26]): 1.3 | Activity [27]: inactive | Activity [28]: Active | Activity (PC-12 [29]): inactive | fold change (FC) [30]: 2

COC1=CC(=O)O[C@@H](/C=C/c2ccccc2)C1
Activity [1]: Active | Activity (PC-12 [2]): Active
